Results from ChEMBL document CHEMBL5321230, “Design, synthesis, and biological evaluation of novel HIV-1 protease inhibitors containing pyrrolidine-derived P2 ligands to combat drug-resistant variant” (Eur J Med Chem, 2023).

Legend:
[1] = target: Human immunodeficiency virus type 1 protease (Human immunodeficiency virus 1, UniProt Q72874); experiment: Inhibition of HIV-1 protease expressed in Escherichia coli using Arg-Glu(EDANS)-Ser-Gln-Asn-Tyr-Pro-Ile-Val-Gln-Lys(DABCYL)-Arg peptide as substrate preincubated for 20 to 30 mins followed by substrate addition and measured for 10 mins by FRET assay
[2] = test system: Human immunodeficiency virus 1; experiment: Antiviral activity against drug-resistant VSV-G pseudotyped HIV-1 NL4-3 harboring protease V32I/L33F/I54M/I84V mutant infected in human HEK293T cells assessed as inhibition of viral replication by measuring luciferase activity incubated for 48 hrs further infected with human SupT1 cells for 48 hrs by luciferase based analysis; format: functional, organism-based; details: Human immunodeficiency virus 1, NL4-3, HEK-293T
[3] = Cytotoxicity against human HEK293T cells assessed as reduction in cell viability incubated for 24 hrs by CCK-8 assay; format: toxicity, cell-based, HEK-293T
[4] = test system: Human immunodeficiency virus 1; experiment: Antiviral activity against wild type VSV-G pseudotyped HIV-1 NL4-3 infected in human HEK293T cells assessed as inhibition of viral replication by measuring luciferase activity incubated for 48 hrs further infected with human SupT1 cells for 48 hrs by luciferase based analysis; format: functional, organism-based; details: Human immunodeficiency virus 1, NL4-3, HEK-293T

| SMILES | IC50 [1] [µM] | EC50 [2] [µM] | CC50 at 24 h [3] [µM] | EC50 [4] [µM] |
| --- | --- | --- | --- | --- |
| CC(C)CN(C[C@@H](O)[C@H](Cc1ccccc1)NC(=O)O[C@H]1CCNC1)S(=O)(=O)c1ccc(NO)cc1 | 5.1 |  |  |  |
| COc1ccc(S(=O)(=O)N(CC(C)C)C[C@@H](O)[C@H](Cc2ccccc2)NC(=O)C[C@H]2CCNC2)cc1 | 2.77 |  |  |  |
| CC(C)CN(C[C@@H](O)[C@H](Cc1ccccc1)NC(=O)[C@H]1CCNC1)S(=O)(=O)c1ccc(N)cc1 | 12.5 |  |  |  |
| COc1ccc(S(=O)(=O)N(CC(C)C)C[C@@H](O)[C@H](Cc2ccccc2)NC(=O)O[C@H]2CCNC2)cn1 | 4.04 |  |  |  |
| CC(C)CN(C[C@@H](O)[C@H](Cc1ccccc1)NC(=O)O[C@@H]1CCNC1)S(=O)(=O)c1ccc(N)cc1 | 25.4 |  |  |  |
| CC(C)CN(C[C@@H](O)[C@H](Cc1ccccc1)NC(=O)O[C@@H]1CCNC1)S(=O)(=O)c1ccc(O)cc1 | 0.82 | 9.26 | > 200 | 0.75 |
| CC(C)CN(C[C@@H](O)[C@H](Cc1ccccc1)NC(=O)[C@H]1CCNC1)S(=O)(=O)c1ccc(O)cc1 | 0.51 | 13.3 | > 200 | 1.57 |
| COc1ccc(S(=O)(=O)N(CC(C)C)C[C@@H](O)[C@H](Cc2ccccc2)NC(=O)[C@@H]2CCNC2)cn1 | 0.83 |  |  |  |
| COc1ccc(S(=O)(=O)N(CC(C)C)C[C@@H](O)[C@H](Cc2ccccc2)NC(=O)[C@@H]2CCCN2)cc1 | 2.19 |  |  |  |
| CC(C)CN(C[C@@H](O)[C@H](Cc1ccccc1)NC(=O)O[C@H]1CCOC1)S(=O)(=O)c1ccc(N)cc1 |  | 3.93 | > 200 | 0.26 |
| CC(C)CN(C[C@@H](O)[C@H](Cc1ccccc1)NC(=O)[C@@H]1CCNC1)S(=O)(=O)c1ccc(O)cc1 | 0.32 | 1.9 | > 200 | 0.29 |
| COc1ccc(S(=O)(=O)N(CC(C)C)C[C@@H](O)[C@H](Cc2ccccc2)NC(=O)[C@@H]2CCNC2)cc1 | 0.41 | 2.51 | > 200 | 1.35 |
| COc1ccc(S(=O)(=O)N(CC(C)C)C[C@@H](O)[C@H](Cc2ccccc2)NC(=O)[C@H]2CCNC2)cn1 | 4.74 |  |  |  |
| CC(C)CN(C[C@@H](O)[C@H](Cc1ccccc1)NC(=O)[C@@H]1CCCN1)S(=O)(=O)c1ccc(O)cc1 | 0.97 |  |  |  |
| CC(C)CN(C[C@@H](O)[C@H](Cc1ccccc1)NC(=O)O[C@H]1CCNC1)S(=O)(=O)c1ccc(O)cc1 | 0.72 | 8.14 | > 200 | 0.41 |
| COc1ccc(S(=O)(=O)N(CC(C)C)C[C@@H](O)[C@H](Cc2ccccc2)NC(=O)N[C@@H]2CCNC2)cc1 | 20.7 |  |  |  |
| COc1ccc(S(=O)(=O)N(CC(C)C)C[C@@H](O)[C@H](Cc2ccccc2)NC(=O)[C@H]2CCNC2)cc1 | 0.6 |  |  |  |

| SMILES | IC50 [1] [µM] | EC50 [2] [µM] | CC50 at 24 h [3] [µM] | EC50 [4] [µM] |
| --- | --- | --- | --- | --- |
| CC(C)CN(C[C@@H](O)[C@H](Cc1ccccc1)NC(=O)C[C@H]1CCNC1)S(=O)(=O)c1ccc(O)cc1 | 1.43 |  |  |  |
| COc1ccc(S(=O)(=O)N(CC(C)C)C[C@@H](O)[C@H](Cc2ccccc2)NC(=O)N[C@H]2CCNC2)cc1 | 4.01 |  |  |  |
| CC(C)CN(C[C@@H](O)[C@H](Cc1ccccc1)NC(=O)C[C@@H]1CCNC1)S(=O)(=O)c1ccc(O)cc1 | 5.01 |  |  |  |
| CC(C)CN(C[C@@H](O)[C@H](Cc1ccccc1)NC(=O)O[C@@H]1CCNC1)S(=O)(=O)c1ccc(NO)cc1 | 27.4 |  |  |  |
| CC(C)CN(C[C@@H](O)[C@H](Cc1ccccc1)NC(=O)N[C@H]1CCNC1)S(=O)(=O)c1ccc(O)cc1 | 1.95 |  |  |  |
| COc1ccc(S(=O)(=O)N(CC(C)C)C[C@@H](O)[C@H](Cc2ccccc2)NC(=O)O[C@@H]2CCNC2)cn1 | 23 |  |  |  |
| CC(C)CN(C[C@@H](O)[C@H](Cc1ccccc1)NC(=O)O[C@H]1CCNC1)S(=O)(=O)c1ccc(N)cc1 | 5.06 |  |  |  |
| CC(C)CN(C[C@@H](O)[C@H](Cc1ccccc1)NC(=O)N[C@@H]1CCNC1)S(=O)(=O)c1ccc(O)cc1 | 5.97 |  |  |  |
| COc1ccc(S(=O)(=O)N(CC(C)C)C[C@@H](O)[C@H](Cc2ccccc2)NC(=O)[C@H]2CCCN2)cc1 | 39.8 |  |  |  |
| COc1ccc(S(=O)(=O)N(CC(C)C)C[C@@H](O)[C@H](Cc2ccccc2)NC(=O)C[C@@H]2CCNC2)cc1 | 20.5 |  |  |  |
| CC(C)CN(C[C@@H](O)[C@H](Cc1ccccc1)NC(=O)[C@H]1CCCN1)S(=O)(=O)c1ccc(O)cc1 | 96.9 |  |  |  |
| CC(C)CN(C[C@@H](O)[C@H](Cc1ccccc1)NC(=O)[C@@H]1CCNC1)S(=O)(=O)c1ccc(N)cc1 | 6.16 |  |  |  |
| CC(C)CN(C[C@@H](O)[C@H](Cc1ccccc1)NC(=O)[C@H]1CCNC1)S(=O)(=O)c1ccc(NO)cc1 | 10.9 |  |  |  |
| COc1ccc(S(=O)(=O)N(CC(C)C)C[C@@H](O)[C@H](Cc2ccccc2)NC(=O)O[C@H]2CCNC2)cc1 | 1.1 |  |  |  |
| COc1ccc(S(=O)(=O)N(CC(C)C)C[C@@H](O)[C@H](Cc2ccccc2)NC(=O)O[C@@H]2CCNC2)cc1 | 2.58 |  |  |  |
| CC(C)CN(C[C@@H](O)[C@H](Cc1ccccc1)NC(=O)[C@@H]1CCNC1)S(=O)(=O)c1ccc(NO)cc1 | 1.21 |  |  |  |
